Measured values: patent US20060079453A1, “Hla binding peptides and their uses” (priority 2002, published 2006)
No end group written: not given here.

Experiments:
Assay in all cases: biochemical
Type in all cases: binding
[1] = biological target: HLA-DR DRB1*0101 (DR1) (Homo sapiens, UniProt P01903+P01911, A100R/D57E/F55L/F60I/F76Y/I96L/L162R/M171V/P40L/Q125E/R42F/V115G/Y59C); conditions: DRB1 *0101
[2] = biological target: HLA-DR DRB1*0401 (DR4) (Homo sapiens, UniProt P01903+P01911, A100K/A169T/F76Y/I96L/K127E/L162R/M171V/N62H/P40V/Q125Y/R42H/S133A/S149N/S66Y/V115G/V209L/W38E); conditions: DRB1 *0401
[3] = biological target: HLA-DR DRB1*0701 (DR7) (Homo sapiens, UniProt P01903+P01911, A100R/A102G/A103Q/D57E/D86V/E43K/F76Y/K127E/L162R/M171V/P40G/Q125H/Q99D/R33Q/R42Y/R54Q/S133A/S66F/T210M/V115G/Y107V/Y59L/Y89S); conditions: DRB1 *0701
[4] = biological target: HLA-DR DRB1*0802 (DR8) (Homo sapiens, UniProt P01903+P01911, A100R/A103L/A169T/F76Y/H45Y/I96F/K41T/L162R/M171V/P40S/Q125H/Q178H/Q39Y/Q99D/R218S/R42G/S66Y/V115G/W38E)
[5] = biological target: HLA-DR DRB1*0901 (DR9) (Homo sapiens, UniProt P01903+P01911, A100R/A103E/D57H/D86V/F55Y/F60I/F76Y/I96F/K127E/L162R/M171V/P40D/Q125H/Q99R/R33Q/R42F/S133A/S66N/T210M/V115G/W38K/Y107V/Y59G/Y89S); conditions: DRB1 *0901
[6] = biological target: HLA-DR DRB1*1101 (DR11) (Homo sapiens, UniProt P01903+P01911, A100R/A169T/A87E/I96F/K41T/L162R/M171V/P40S/Q125H/Q178H/Q39Y/Q99D/R42S/S66Y/T262R/V115G/W38E); conditions: DRB1 *1101
Sequence of HLA-DR DRB1*1101 (DR11) (P01903 26-254 limits assumed, other chains not shown): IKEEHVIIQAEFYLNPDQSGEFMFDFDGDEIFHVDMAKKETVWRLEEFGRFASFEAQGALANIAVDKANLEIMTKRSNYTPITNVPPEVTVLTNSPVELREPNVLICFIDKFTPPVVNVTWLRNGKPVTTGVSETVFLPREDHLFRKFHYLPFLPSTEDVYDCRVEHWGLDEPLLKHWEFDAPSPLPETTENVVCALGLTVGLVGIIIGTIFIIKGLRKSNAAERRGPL

[7] = biological target: HLA-DR DRB1*1302 (DR13) (Homo sapiens, UniProt P01903+P01911, A100E/A169T/K41T/L162R/M171V/P40S/Q125H/Q178H/Q39Y/Q99D/R42S/S66N/T262R/V115G/W38E/Y61H); conditions: DRBI *1302
Sequence of HLA-DR DRB1*1302 (DR13) (P01903 26-254 limits assumed, other chains not shown): as above

[8] = biological target: HLA-DR DRB1*1501 (DR15) (Homo sapiens, UniProt P01903+P01911); conditions: DRBI *1501
[9] = biological target: HLA-DR DRB3*0101 (DR52) (Homo sapiens, UniProt P01903+P79483)
[10] = biological target: HLA-DR DRB5*0101 (DR51) (Homo sapiens, UniProt P01903+Q30154); conditions: DRB5 *0101
[11] = biological target: HLA-DR DRB4*0101 (DR53) (Homo sapiens, UniProt P01903+P13762, G164S); conditions: DRB4 *0101

Row | Molecule | IC50 [1] | IC50 [2] | IC50 [3] | IC50 [4] | IC50 [5] | IC50 [6] | IC50 [7] | IC50 [8] | IC50 [9] | IC50 [10] | IC50 [11]
1 | CC[C@H](C)[C@H](NC(=O)[C@H](CO)NC(=O)[C@H](CC(N)=O)NC(=O)[C@H](C)NC(=O)[C@H](CC(C)C)NC(=O)[C@H](CCC(=O)O)NC(=O)[C@H](Cc1ccccc1)NC(=O)[C@@H](N)C(C)C)C(=O)N[C@H](C(=O)N[C@@H](CC(C)C)C(=O)N1CCC[C@H]1C(=O)N[C@@H](Cc1ccccc1)C(=O)N[C@@H](CC(=O)O)C(=O)N[C@@H](CS)C(=O)N[C@@H](CCCNC(=N)N)C(=O)O)C(C)C | 0.019 µM | 0.999 µM | 0.039 µM | 36.1 µM | 0.05 µM | 11.8 µM | 0.024 µM | 0.477 µM | 0.128 µM |  | 
2 | NMSLLKHQSLRPDED [NMSLLKHQSLRPDED] | 3.13 µM | > 40 µM |  | 26.5 µM | 96.8 µM | 25.8 µM | > 35 µM | > 30.3 µM | > 14.9 µM | > 100 µM | 
3 | CC[C@H](C)[C@H](NC(=O)[C@H](CO)NC(=O)[C@@H](NC(=O)CNC(=O)[C@H](CCC(=O)O)NC(=O)[C@@H]1CCCN1)C(C)C)C(=O)N[C@@H](Cc1c[nH]c2ccccc12)C(=O)N[C@@H](CC(N)=O)C(=O)N1CCC[C@H]1C(=O)N[C@H](C(=O)N[C@@H](CC(C)C)C(=O)N[C@@H](CC(C)C)C(=O)N[C@@H](Cc1c[nH]c2ccccc12)C(=O)N[C@@H](CCC(N)=O)C(=O)N1CCC[C@H]1C(=O)O)[C@@H](C)CC |  | 1.78 µM | 15 µM | 28.6 µM | 103 µM | 30.9 µM |  | 0.0072 µM | 4.62 µM | 22.2 µM | 0.107 µM
4 | LRMMNDQLMFLERAF | 2.7 µM | 0.392 µM | 17.5 µM | 2.49 µM | 4.6 µM | 1.83 µM | 1.31 µM |  | 1.57 µM | 0.758 µM | 0.05 µM
5 | CC(C)C[C@H](NC(=O)[C@H](CCC(N)=O)NC(=O)[C@H](C)NC(=O)[C@H](CC(N)=O)NC(=O)[C@H](CCCCN)NC(=O)[C@@H](NC(=O)[C@H](CCCCN)NC(=O)[C@H](CC(N)=O)NC(=O)CN)C(C)C)C(=O)N[C@@H](C)C(=O)NCC(=O)N[C@@H](C)C(=O)N[C@@H](CCCCN)C(=O)NCC(=O)N[C@H](C(=O)O)C(C)C | 0.677 µM |  | > 83.3 µM | 28.9 µM | 7.88 µM | > 66.7 µM | > 35 µM | > 45.5 µM | > 12.5 µM | 1.22 µM | 
6 | TNKFSGYPLYHSVYE | 3.4 µM | 5.52 µM | 30.9 µM | 0.614 µM | 0.741 µM | 33.3 µM | > 35 µM | 0.489 µM | > 21.9 µM | 2.94 µM | 
7 | CC[C@H](C)[C@H](NC(=O)[C@H](CCC(N)=O)NC(=O)[C@@H](NC(=O)[C@H](Cc1ccccc1)NC(=O)[C@H](CC(N)=O)NC(=O)[C@H](Cc1ccc(O)cc1)NC(=O)[C@H](CC(C)C)NC(=O)[C@H](Cc1ccccc1)NC(=O)[C@@H](N)CCCCN)[C@@H](C)O)C(=O)N1CCC[C@H]1C(=O)N[C@@H](Cc1c[nH]cn1)C(=O)N[C@@H](CC(C)C)C(=O)N[C@@H](C)C(=O)NCC(=O)N[C@H](C(=O)O)[C@@H](C)O | 0.34 µM |  | 0.03 µM | 0.415 µM | 0.054 µM | 0.091 µM | 0.221 µM |  | 10.2 µM | 1.6 µM | 0.256 µM
8 | CC[C@H](C)[C@H](NC(=O)[C@H](CO)NC(=O)[C@H](CO)NC(=O)[C@H](CC(=O)O)NC(=O)[C@H](C)NC(=O)[C@H](CC(N)=O)NC(=O)[C@@H](NC(=O)[C@H](Cc1ccc(O)cc1)NC(=O)[C@H](C)NC(=O)[C@@H](NC(=O)CN)C(C)C)[C@@H](C)CC)C(=O)N[C@@H](CCC(=O)O)C(=O)NCC(=O)N[C@@H](CC(N)=O)C(=O)N[C@@H](Cc1ccc(O)cc1)C(=O)O |  | 0.146 µM | 6.24 µM | 23.4 µM | 3.05 µM | > 40 µM |  | 7.61 µM | 1.42 µM | 66.7 µM | 0.477 µM
9 | CC[C@H](C)[C@H](NC(=O)[C@@H]1CCCN1C(=O)[C@H](Cc1c[nH]cn1)NC(=O)[C@@H](NC(=O)[C@@H]1CCCN1C(=O)[C@@H](NC(=O)[C@H](CO)NC(=O)[C@@H]1CCCN1C(=O)[C@H](CC(C)C)NC(=O)CNC(=O)[C@@H](NC(=O)[C@H](C)NC(=O)[C@H](CCC(=O)O)NC(=O)[C@H](C)N)C(C)C)[C@@H](C)CC)C(C)C)C(=O)NCC(=O)O | 0.0054 µM | 9.92 µM | 2.02 µM | > 490 µM | 23.1 µM | > 66.7 µM | 5.46 µM | 0.056 µM | > 11.8 µM | 69.3 µM | 
10 | RVPVSHSFPHPLYNM | 0.067 µM | > 16 µM |  | 100 µM | 0.097 µM | > 200 µM | 0.377 µM | 5.52 µM | > 14.9 µM |  | 9.21 µM
11 | LSGLHGQDLFGIWSK | 0.148 µM | > 26.7 µM | > 35.7 µM | > 81.7 µM | > 125 µM | 30.2 µM | > 35 µM | 32.2 µM | > 8.83 µM | 81.7 µM | 
12 | GQRVPVSHSFPHPLY | 1.56 µM | > 40 µM | 0.629 µM | > 245 µM | 0.102 µM | > 200 µM | 0.703 µM |  | > 14.9 µM | > 200 µM | 9.86 µM
